Experimental data from ChEMBL document CHEMBL3596137, “N-Substituted pyrazole-3-carboxamides as inhibitors of human 15-lipoxygenase” (Bioorg Med Chem Lett, 2015).
pIC50: −log10 of the molar value. Blank lines part the entries; values can stand above or below the compound they belong to. Calls of active or inactive are those of the source. The rule behind the calls is not given here.

Columns and labels:
[1] = molecular target: T1, Polyunsaturated fatty acid lipoxygenase ALOX15 (Homo sapiens, UniProt P16050); assay: Inhibition of human 15-LOX-1 using arachidonic acid as substrate
T1 sequence (P16050 whole entry): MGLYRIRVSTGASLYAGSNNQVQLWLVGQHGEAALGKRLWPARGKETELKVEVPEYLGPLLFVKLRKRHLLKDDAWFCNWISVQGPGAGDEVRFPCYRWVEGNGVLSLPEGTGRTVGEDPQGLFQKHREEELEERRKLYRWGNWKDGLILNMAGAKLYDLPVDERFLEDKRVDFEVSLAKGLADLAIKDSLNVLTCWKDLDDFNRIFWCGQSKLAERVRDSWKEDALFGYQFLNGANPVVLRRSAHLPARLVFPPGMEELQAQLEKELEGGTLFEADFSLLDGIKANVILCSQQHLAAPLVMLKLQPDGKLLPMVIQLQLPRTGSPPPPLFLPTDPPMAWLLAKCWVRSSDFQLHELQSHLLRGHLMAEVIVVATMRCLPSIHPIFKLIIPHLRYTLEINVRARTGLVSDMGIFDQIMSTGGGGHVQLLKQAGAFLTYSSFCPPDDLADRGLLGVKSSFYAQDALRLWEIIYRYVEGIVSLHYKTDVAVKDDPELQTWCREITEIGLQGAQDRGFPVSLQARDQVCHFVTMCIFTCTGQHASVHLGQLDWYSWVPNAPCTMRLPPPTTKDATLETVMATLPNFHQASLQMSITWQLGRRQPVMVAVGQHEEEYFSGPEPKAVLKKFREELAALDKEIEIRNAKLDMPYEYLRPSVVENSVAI

[2] = molecular target: T1, Polyunsaturated fatty acid lipoxygenase ALOX15; assay: Inhibition of human 15-LOX-1 using arachidonic acid as substrate by cell based assay
[3] = molecular target: T2, Polyunsaturated fatty acid 5-lipoxygenase (Homo sapiens) (UniProt P09917); assay: Inhibition of 5-LOX (unknown origin) using arachidonic acid as substrate at 10 uM
T2 sequence (whole entry): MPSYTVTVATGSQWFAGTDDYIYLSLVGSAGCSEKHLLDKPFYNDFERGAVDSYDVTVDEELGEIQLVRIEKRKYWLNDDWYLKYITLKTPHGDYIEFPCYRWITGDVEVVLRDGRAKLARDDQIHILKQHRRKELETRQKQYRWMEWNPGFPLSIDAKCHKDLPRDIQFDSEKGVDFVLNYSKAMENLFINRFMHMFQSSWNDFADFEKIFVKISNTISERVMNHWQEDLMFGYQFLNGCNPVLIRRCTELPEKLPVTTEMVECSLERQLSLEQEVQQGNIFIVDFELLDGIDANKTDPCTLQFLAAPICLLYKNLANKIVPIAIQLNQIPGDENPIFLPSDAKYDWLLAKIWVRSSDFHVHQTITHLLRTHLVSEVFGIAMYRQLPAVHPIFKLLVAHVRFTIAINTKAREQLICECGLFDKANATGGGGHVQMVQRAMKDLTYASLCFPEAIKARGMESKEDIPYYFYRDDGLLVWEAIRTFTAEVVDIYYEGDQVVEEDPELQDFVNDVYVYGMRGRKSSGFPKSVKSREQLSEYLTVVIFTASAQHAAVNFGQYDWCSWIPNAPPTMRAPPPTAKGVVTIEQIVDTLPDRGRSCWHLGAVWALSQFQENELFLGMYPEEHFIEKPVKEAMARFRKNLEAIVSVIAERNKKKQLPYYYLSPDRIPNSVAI

[4] = molecular target: T2, Polyunsaturated fatty acid 5-lipoxygenase (Homo sapiens); assay: Inhibition of 5-LOX (unknown origin) using arachidonic acid as substrate at 10 uM by cell based assay
[5] = molecular target: T3, Polyunsaturated fatty acid lipoxygenase ALOX12 (Homo sapiens) (UniProt P18054); assay: Inhibition of 12-LOX (unknown origin) using arachidonic acid as substrate at 10 uM
T3 sequence (whole entry): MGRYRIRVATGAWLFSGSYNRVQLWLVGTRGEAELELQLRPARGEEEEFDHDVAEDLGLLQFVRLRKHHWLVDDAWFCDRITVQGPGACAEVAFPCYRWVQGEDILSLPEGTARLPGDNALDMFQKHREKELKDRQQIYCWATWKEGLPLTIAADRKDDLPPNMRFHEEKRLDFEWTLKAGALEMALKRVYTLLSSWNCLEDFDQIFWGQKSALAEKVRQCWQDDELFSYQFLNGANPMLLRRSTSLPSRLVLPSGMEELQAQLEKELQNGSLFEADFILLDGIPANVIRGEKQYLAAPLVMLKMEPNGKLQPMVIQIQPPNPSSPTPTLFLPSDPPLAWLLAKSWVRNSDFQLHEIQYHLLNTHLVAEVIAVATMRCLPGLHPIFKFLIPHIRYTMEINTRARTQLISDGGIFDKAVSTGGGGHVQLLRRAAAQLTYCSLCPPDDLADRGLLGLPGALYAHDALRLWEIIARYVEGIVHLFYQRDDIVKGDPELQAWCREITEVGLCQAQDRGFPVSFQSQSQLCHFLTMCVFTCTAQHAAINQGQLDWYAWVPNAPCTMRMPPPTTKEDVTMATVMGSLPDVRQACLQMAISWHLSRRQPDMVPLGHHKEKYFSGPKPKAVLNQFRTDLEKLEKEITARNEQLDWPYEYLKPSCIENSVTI

[6] = molecular target: Prostaglandin G/H synthase 1 (Homo sapiens) (UniProt P23219); assay: Inhibition of COX1 (unknown origin) using arachidonic acid as substrate at 10 uM
[7] = molecular target: T4, Prostaglandin G/H synthase 2 (Homo sapiens) (UniProt P35354); assay: Inhibition of COX2 (unknown origin) using arachidonic acid as substrate at 10 uM
T4 sequence (whole entry): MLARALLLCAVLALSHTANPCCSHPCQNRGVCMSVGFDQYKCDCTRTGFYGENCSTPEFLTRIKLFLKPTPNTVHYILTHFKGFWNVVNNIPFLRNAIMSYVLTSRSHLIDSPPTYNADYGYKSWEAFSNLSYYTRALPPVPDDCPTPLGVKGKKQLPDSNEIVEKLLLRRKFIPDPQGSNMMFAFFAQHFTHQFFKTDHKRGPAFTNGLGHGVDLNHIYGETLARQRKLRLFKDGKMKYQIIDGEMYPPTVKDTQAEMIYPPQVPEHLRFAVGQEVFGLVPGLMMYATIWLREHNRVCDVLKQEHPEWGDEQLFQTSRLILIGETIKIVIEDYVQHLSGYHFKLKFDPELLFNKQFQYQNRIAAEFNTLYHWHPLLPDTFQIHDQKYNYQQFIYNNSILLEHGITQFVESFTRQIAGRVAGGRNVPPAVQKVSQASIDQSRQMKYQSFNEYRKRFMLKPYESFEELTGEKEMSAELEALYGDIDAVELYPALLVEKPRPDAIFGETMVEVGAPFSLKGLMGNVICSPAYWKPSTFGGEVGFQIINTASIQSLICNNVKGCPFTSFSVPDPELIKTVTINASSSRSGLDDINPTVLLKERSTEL

Sequence of Prostaglandin G/H synthase 1 (Homo sapiens) (P23219 whole entry): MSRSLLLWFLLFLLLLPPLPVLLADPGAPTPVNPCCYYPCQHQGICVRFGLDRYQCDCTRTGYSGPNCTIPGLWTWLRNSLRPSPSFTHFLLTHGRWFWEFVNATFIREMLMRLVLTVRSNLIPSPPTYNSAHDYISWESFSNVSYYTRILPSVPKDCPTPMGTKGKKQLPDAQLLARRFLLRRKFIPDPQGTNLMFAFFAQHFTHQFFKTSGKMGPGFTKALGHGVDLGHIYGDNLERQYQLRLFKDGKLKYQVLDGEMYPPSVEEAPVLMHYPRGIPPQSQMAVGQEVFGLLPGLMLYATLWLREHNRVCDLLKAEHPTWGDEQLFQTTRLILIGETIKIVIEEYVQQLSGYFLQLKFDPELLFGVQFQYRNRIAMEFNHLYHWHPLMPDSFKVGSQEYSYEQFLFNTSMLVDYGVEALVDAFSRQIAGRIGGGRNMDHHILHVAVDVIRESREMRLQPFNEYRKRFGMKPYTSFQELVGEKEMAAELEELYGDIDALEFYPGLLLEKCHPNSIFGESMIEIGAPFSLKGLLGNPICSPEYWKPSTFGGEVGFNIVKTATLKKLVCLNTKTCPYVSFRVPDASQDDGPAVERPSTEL

pIC50 ([1]; read-out: IC50): 5.71 | pIC50 ([2]; read-out: IC50): 5.97
SMILES: O=C(Nc1ccc(F)cc1Cl)c1ccn(S(=O)(=O)c2cccc(C(F)(F)F)c2)n1

IC50 [2]: Not Active
SMILES: O=C(Nc1ccc(F)cc1Cl)c1ccn(C(=O)Cc2ccccc2)n1

The next lines start with the compound.

SMILES: CCCCCCNC(=O)n1cc(CCCC)c(C(=O)Nc2ccc(F)cc2Cl)n1
IC50 [1]: Not Active | IC50 [2]: Not Active

SMILES: O=C(Nc1ccccc1Cl)c1ccn(C(=O)c2cccc(Cl)c2)n1
inhibition [3]: 8% | inhibition [4]: 16% | inhibition [5]: 18% | inhibition [6]: 11% | inhibition [7]: inactive

SMILES: Cn1cc(Cl)c(C(=O)Nc2ccc(F)cc2Cl)n1
IC50 [2]: Not Active

SMILES: CN(C)S(=O)(=O)n1ccc(C(=O)Nc2ccc(F)cc2Cl)n1
IC50 [2]: Not Active
